The record followed here is ChEMBL document CHEMBL1138365, “Application of 3D-QSAR for identification of descriptors defining bioactivity of antimicrobial peptides” (2007).

In brackets after ≈: the same amount, converted by molar mass. Non-standard residues stand in square brackets, D forms with d. Residues, ends and D or L forms follow the SMILES beside them. ξ: configuration not given here. Pro(3ξ,4ξ-(CH2)4) = O=C(O)[C@H]1NCC2CCCCC21; Tic = O=C(O)[C@@H]1Cc2ccccc2CN1; dTic = O=C(O)[C@H]1Cc2ccccc2CN1; Orn = NCCC[C@H](N)C(=O)O; βAla = NCCC(=O)O

Experiment [1] deals with Staphylococcus aureus. As to the kind of experiment: Antibacterial activity against Staphylococcus aureus. The class given is functional.
Experiment [2] concerns Mycolicibacterium fortuitum. As to the kind of experiment: Antibacterial activity against Mycobacterium ranae. Type of experiment: functional.

The term MIC denotes the lowest concentration that inhibits growth of the organism. A low value points to inhibition by little substance. For `CC(C)C[C@H](NC(=O)CNC(=O)[C@@H]1C2CCCCC2CN1C(=O)[C@@H]1Cc2ccccc2CN1C(=O)[C@H](CCCCN)NC(=O)CNC(=O)[C@@H]1C2CCCCC2CN1C(=O)[C@@H]1Cc2ccccc2CN1C(=O)[C@H](CC(C)C)NC(=O)CNC(=O)[C@@H]1C2CCCCC2CN1C(=O)[C@@H]1Cc2ccccc2CN1C(=O)[C@H](CCCCN)NC(=O)CNC(=O)[C@@H]1C2CCCCC2CN1C(=O)[C@@H]1Cc2ccccc2CN1C(=O)[C@@H](CC(C)C)NC(=O)CNC(=O)[C@H](CCCCN)NC(=O)CN)C(=O)N1Cc2ccccc2C[C@H]1C(=O)N1CC2CCCCC2[C@H]1C(=O)NCC(=O)N[C@@H](CCCCN)C(=O)N1Cc2ccccc2C[C@H]1C(=O)N1CC2CCCCC2[C@H]1C(=O)NCC(=O)N[C@@H](CCCCN)C(=O)N[C@@H](CCCNC(=N)N)C(N)=O` (some centres not stated), the MIC in experiment [1] was found to be 10 µM (≈ 34.7 µg/mL).

On to `CC(=O)NCC(=O)N[C@@H](Cc1ccccc1)C(=O)N1Cc2ccccc2C[C@H]1C(=O)NCC(=O)NCC(=O)N[C@@H](CCCCN)C(=O)N1Cc2ccccc2C[C@H]1C(=O)NCC(=O)NCC(=O)N[C@@H](Cc1ccccc1)C(=O)N1Cc2ccccc2C[C@H]1C(=O)NCC(=O)NCC(=O)N[C@@H](CCCCN)C(=O)N1Cc2ccccc2C[C@H]1C(=O)N[C@@H](CCCCN)C(=O)N[C@@H](CCCCN)C(=O)N[C@@H](CCCCN)C(=O)N[C@@H](CCCCN)C(N)=O` (Ac-GF[Tic]GGK[Tic]GGF[Tic]GGK[Tic]KKKK-NH2), for which, in experiment [2], 30 µM (≈ 64.8 µg/mL) was the least that counted as inhibitory (MIC). With `CC(=O)NCC(=O)N[C@@H](Cc1ccccc1)C(=O)N1Cc2ccccc2C[C@H]1C(=O)N1CC2CCCCC2[C@H]1C(=O)NCC(=O)N[C@@H](CCCCN)C(=O)N1Cc2ccccc2C[C@H]1C(=O)N1CC2CCCCC2[C@H]1C(=O)NCC(=O)N[C@@H](Cc1ccccc1)C(=O)N1Cc2ccccc2C[C@H]1C(=O)N1CC2CCCCC2[C@H]1C(=O)NCC(=O)N[C@@H](CCCCN)C(=O)N1Cc2ccccc2C[C@H]1C(=O)N[C@@H](CCCN)C(=O)N[C@@H](CCCN)C(=O)N[C@@H](CCCN)C(=O)N[C@@H](CCCN)C(N)=O` (some centres not stated) (Ac-GF[Tic][Pro(3ξ,4ξ-(CH2)4)]GK[Tic][Pro(3ξ,4ξ-(CH2)4)]GF[Tic][Pro(3ξ,4ξ-(CH2)4)]GK[Tic][Orn][Orn][Orn][Orn]-NH2), the MIC in experiment [1] and in experiment [2] was 10 µM (≈ 23.8 µg/mL) throughout. Take `CC(C)C[C@H](NC(=O)[C@@H](N)CCCCN)C(=O)N1Cc2ccccc2C[C@H]1C(=O)N1CC2CCCCC2[C@H]1C(=O)NCC(=O)N[C@@H](CCCCN)C(=O)N1Cc2ccccc2C[C@H]1C(=O)N1CC2CCCCC2[C@H]1C(=O)NCC(=O)N[C@@H](Cc1ccccc1)C(=O)N1Cc2ccccc2C[C@H]1C(=O)N1CC2CCCCC2[C@H]1C(=O)NCC(=O)N[C@@H](CCCCN)C(=O)N1Cc2ccccc2C[C@H]1C(=O)N[C@@H](CCCCN)C(=O)N[C@@H](CCCCN)C(=O)N[C@@H](CCCCN)C(=O)N[C@@H](CCCCN)C(N)=O` (some centres not stated) (H-KL[Tic][Pro(3ξ,4ξ-(CH2)4)]GK[Tic][Pro(3ξ,4ξ-(CH2)4)]GF[Tic][Pro(3ξ,4ξ-(CH2)4)]GK[Tic]KKKK-NH2): the MIC was 30 µM (≈ 73.1 µg/mL) in experiment [1] and 3 µM (≈ 7.31 µg/mL) in experiment [2]. The compound `CC(=O)NCC(=O)N[C@@H](Cc1ccccc1)C(=O)N1Cc2ccccc2C[C@H]1C(=O)NCC(=O)N[C@@H](CCCCN)C(=O)N1Cc2ccccc2C[C@H]1C(=O)NCC(=O)N[C@@H](Cc1ccccc1)C(=O)N1Cc2ccccc2C[C@H]1C(=O)NCC(=O)N[C@@H](CCCCN)C(=O)N1Cc2ccccc2C[C@H]1C(=O)N[C@@H](CCCCN)C(=O)N[C@@H](CCCCN)C(=O)N[C@@H](CCCCN)C(=O)N[C@@H](CCCCN)C(N)=O` (Ac-GF[Tic]GK[Tic]GF[Tic]GK[Tic]KKKK-NH2) had an MIC in experiment [2] of 30 µM (≈ 59.6 µg/mL). Take `CC(=O)NCCC(=O)N[C@@H](Cc1ccccc1)C(=O)N1Cc2ccccc2C[C@H]1C(=O)N1CC2CCCCC2[C@H]1C(=O)NCCC(=O)N[C@@H](CCCCN)C(=O)N1Cc2ccccc2C[C@H]1C(=O)N1CC2CCCCC2[C@H]1C(=O)NCCC(=O)N[C@@H](Cc1ccccc1)C(=O)N1Cc2ccccc2C[C@@H]1C(=O)N1CC2CCCCC2[C@H]1C(=O)NCCC(=O)N[C@@H](CCCCN)C(=O)N1Cc2ccccc2C[C@H]1C(=O)N[C@@H](CCCCN)C(=O)N[C@@H](CCCCN)C(=O)N[C@@H](CCCCN)C(=O)N[C@@H](CCCCN)C(N)=O` (some centres not stated) (Ac-[βAla]F[Tic][Pro(3ξ,4ξ-(CH2)4)][βAla]K[Tic][Pro(3ξ,4ξ-(CH2)4)][βAla]F[dTic][Pro(3ξ,4ξ-(CH2)4)][βAla]K[Tic]KKKK-NH2): the MIC in experiment [1] amounted to 10 µM (≈ 25 µg/mL); in experiment [2], 1 µM (≈ 2.5 µg/mL). On to `CC(=O)NCC(=O)N[C@@H](Cc1ccccc1)C(=O)N1Cc2ccccc2C[C@H]1C(=O)N1CC2CCCCC2[C@H]1C(=O)NCC(=O)N[C@@H](CCCCN)C(=O)N1Cc2ccccc2C[C@H]1C(=O)N1CC2CCCCC2[C@H]1C(=O)NCC(=O)N[C@@H](Cc1ccccc1)C(=O)N1Cc2ccccc2C[C@H]1C(=O)N1CC2CCCCC2[C@H]1C(=O)NCC(=O)N[C@@H](CCCCN)C(=O)N1Cc2ccccc2C[C@H]1C(=O)N[C@@H](CCCCN)C(=O)N[C@@H](CCCCN)C(=O)N[C@@H](CCCCN)C(=O)N[C@@H](CCCCN)C(N)=O` (some centres not stated) (Ac-GF[Tic][Pro(3ξ,4ξ-(CH2)4)]GK[Tic][Pro(3ξ,4ξ-(CH2)4)]GF[Tic][Pro(3ξ,4ξ-(CH2)4)]GK[Tic]KKKK-NH2), for which the MIC was determined as 3 µM (≈ 7.32 µg/mL) in experiment [1] and 10 µM (≈ 24.4 µg/mL) in experiment [2]. For `CC(C)C[C@H](NC(=O)CNC(=O)[C@H](CCCCN)NC(=O)CN)C(=O)N1Cc2ccccc2C[C@H]1C(=O)N1CC2CCCCC2[C@H]1C(=O)NCC(=O)N[C@@H](CCCCN)C(=O)N1Cc2ccccc2C[C@H]1C(=O)N1CC2CCCCC2[C@H]1C(=O)NCC(=O)N[C@@H](Cc1ccccc1)C(=O)N1Cc2ccccc2C[C@H]1C(=O)N1CC2CCCCC2[C@H]1C(=O)NCC(=O)N[C@@H](CCCCN)C(=O)N1Cc2ccccc2C[C@H]1C(=O)N1CC2CCCCC2[C@H]1C(=O)NCC(=O)N[C@@H](Cc1ccccc1)C(=O)N1Cc2ccccc2C[C@H]1C(=O)N1CC2CCCCC2[C@H]1C(=O)NCC(=O)N[C@@H](CCCCN)C(=O)N1Cc2ccccc2C[C@H]1C(=O)N1CC2CCCCC2[C@H]1C(=O)NCC(=O)N[C@@H](CCCCN)C(=O)N[C@@H](CCCNC(=N)N)C(N)=O` (some centres not stated) (H-GKGL[Tic][Pro(3ξ,4ξ-(CH2)4)]GK[Tic][Pro(3ξ,4ξ-(CH2)4)]GF[Tic][Pro(3ξ,4ξ-(CH2)4)]GK[Tic][Pro(3ξ,4ξ-(CH2)4)]GF[Tic][Pro(3ξ,4ξ-(CH2)4)]GK[Tic][Pro(3ξ,4ξ-(CH2)4)]GKR-NH2), inhibition of growth in experiment [1] (MIC) required 10 µM (≈ 35.4 µg/mL). The same measure, in the same setting: to `CC(C)C[C@H](NC(=O)CNC(=O)[C@@H]1C2CCCCC2CN1C(=O)[C@@H]1Cc2ccccc2CN1C(=O)[C@H](CC(C)C)NC(=O)CNC(=O)[C@@H]1C2CCCCC2CN1C(=O)[C@@H]1Cc2ccccc2CN1C(=O)[C@H](CCCCN)NC(=O)CNC(=O)[C@@H]1C2CCCCC2CN1C(=O)[C@@H]1Cc2ccccc2CN1C(=O)[C@H](CC(C)C)NC(=O)CNC(=O)[C@@H]1C2CCCCC2CN1C(=O)[C@@H]1Cc2ccccc2CN1C(=O)[C@H](CCCCN)NC(=O)CNC(=O)[C@@H]1C2CCCCC2CN1C(=O)[C@@H]1Cc2ccccc2CN1C(=O)[C@H](CC(C)C)NC(=O)CNC(=O)[C@@H]1C2CCCCC2CN1C(=O)[C@@H]1Cc2ccccc2CN1C(=O)[C@@H](CC(C)C)NC(=O)CNC(=O)[C@H](CCCCN)NC(=O)CN)C(=O)N[C@@H](CCCNC(=N)N)C(N)=O` (some centres not stated) belongs 100 µM (≈ 344 µg/mL). Compound `CC(C)C[C@H](NC(=O)CNC(=O)[C@H](CCCCN)NC(=O)CN)C(=O)N1Cc2ccccc2C[C@H]1C(=O)N1CC2CCCCC2[C@H]1C(=O)N[C@H](Cc1ccccc1)C(=O)N[C@H](CCCCN)C(=O)N1Cc2ccccc2C[C@@H]1C(=O)N1CC2CCCCC2[C@H]1C(=O)N[C@H](CCCCN)C(=O)N[C@H](Cc1ccccc1)C(=O)N1Cc2ccccc2C[C@H]1C(=O)N1CC2CCCCC2[C@@H]1C(=O)N[C@H](Cc1ccccc1)C(=O)N[C@H](CCCCN)C(=O)N1Cc2ccccc2C[C@@H]1C(=O)N1CC2CCCCC2[C@H]1C(=O)N[C@@H](CCCCN)C(=O)N[C@@H](Cc1ccccc1)C(=O)N1Cc2ccccc2C[C@@H]1C(=O)N1CC2CCCCC2[C@H]1C(=O)N[C@H](Cc1ccccc1)C(=O)N[C@H](CCCCN)C(=O)N1Cc2ccccc2C[C@@H]1C(=O)N1CC2CCCCC2[C@@H]1C(=O)N[C@H](Cc1ccccc1)C(=O)N[C@@H](CCCCN)C(=O)N[C@@H](CCCNC(=N)N)C(N)=O` (some centres not stated) displayed an MIC in experiment [1] of 30 µM (≈ 121 µg/mL). As for `CC(=O)NCC(=O)N[C@@H](Cc1ccccc1)C(=O)N1CC2CCCCC2[C@H]1C(=O)NCC(=O)N[C@@H](CCCCN)C(=O)N1CC2CCCCC2[C@H]1C(=O)NCC(=O)N[C@@H](Cc1ccccc1)C(=O)N1CC2CCCCC2[C@H]1C(=O)NCC(=O)N[C@@H](CCCCN)C(=O)N[C@@H](CCCCN)C(=O)N[C@@H](CCCCN)C(=O)N[C@@H](CCCCN)C(=O)N[C@@H](CCCCN)C(N)=O` (some centres not stated) (Ac-GF[Pro(3ξ,4ξ-(CH2)4)]GK[Pro(3ξ,4ξ-(CH2)4)]GF[Pro(3ξ,4ξ-(CH2)4)]GKKKKK-NH2), the MIC in experiment [2] turned out to be 100 µM (≈ 180 µg/mL). Turning to `CC(=O)NCC(=O)N[C@@H](Cc1ccccc1)C(=O)NCC(=O)N1CC2CCCCC2[C@H]1C(=O)NCC(=O)N[C@@H](CCCCN)C(=O)NCC(=O)N1CC2CCCCC2[C@H]1C(=O)NCC(=O)N[C@@H](Cc1ccccc1)C(=O)NCC(=O)N1CC2CCCCC2[C@H]1C(=O)NCC(=O)N[C@@H](CCCCN)C(=O)NCC(=O)N[C@@H](CCCCN)C(=O)N[C@@H](CCCCN)C(=O)N[C@@H](CCCCN)C(=O)N[C@@H](CCCCN)C(N)=O` (some centres not stated) (Ac-GFG[Pro(3ξ,4ξ-(CH2)4)]GKG[Pro(3ξ,4ξ-(CH2)4)]GFG[Pro(3ξ,4ξ-(CH2)4)]GKGKKKK-NH2), it took 100 µM (≈ 203 µg/mL) to inhibit growth in experiment [2] (MIC). Compound `CC(C)C[C@@H](NC(=O)CNC(=O)[C@H](CCCCN)NC(=O)CN)C(=O)N1Cc2ccccc2C[C@H]1C(=O)N1CC2CCCCC2[C@H]1C(=O)NCC(=O)N[C@@H](CCCNC(=N)N)C(=O)N1Cc2ccccc2C[C@H]1C(=O)N1CC2CCCCC2[C@H]1C(=O)NCC(=O)N[C@@H](Cc1ccccc1)C(=O)N1Cc2ccccc2C[C@H]1C(=O)N1CC2CCCCC2[C@H]1C(=O)NCC(=O)N[C@@H](CCCNC(=N)N)C(=O)N1Cc2ccccc2C[C@H]1C(=O)N1CC2CCCCC2[C@H]1C(=O)NCC(=O)N[C@@H](Cc1ccccc1)C(=O)N1Cc2ccccc2C[C@H]1C(=O)N1CC2CCCCC2[C@H]1C(=O)NCC(=O)N[C@@H](CCCNC(=N)N)C(=O)N1Cc2ccccc2C[C@H]1C(=O)N1CC2CCCCC2[C@H]1C(=O)NCC(=O)N[C@@H](CCCCN)C(=O)N[C@@H](CCCNC(=N)N)C(N)=O` (some centres not stated) registered an MIC in experiment [1] of 10 µM (≈ 36.2 µg/mL).
